Data set [1] in a line: Distribution coefficient, logD of the compound at pH 7.4 by chromatography. It is filed as physicochemical.
Data set [2] is described as follows: Volume of distribution at steady state in beagle dog at 10.5 mg/kg, iv measured up to 7 hrs by LC-MS/MS analysis. Type of data set: ADME, organism-based, Canis lupus familiaris. The conditions noted are these: in vivo, read-out: Vdss.
A short description of data set [3]: Intrinsic clearance in dog hepatocytes at 0.5 uM incubated for 120 mins by LC-MS/MS analysis. It is filed as ADME, cell-based, Canis lupus familiaris, Hepatocyte. The conditions noted are these: 2 h.
A short description of data set [4]: Blood clearance in beagle dog at 10.5 mg/kg, iv measured up to 7 hrs by LC-MS/MS analysis. Type of data set: ADME, organism-based, Canis lupus familiaris. Particulars: whole blood.
The nature of data set [5]: Volume of distribution at steady state in male Wistar Han rat at 1 mg/kg, iv measured up to 7 hrs by LC-MS/MS analysis. Type of data set: ADME, organism-based. Particulars: in vivo, read-out: Vdss.
A short description of data set [6]: Intrinsic clearance in rat hepatocytes at 0.5 uM incubated for 60 mins by LC-MS/MS analysis. It is filed as ADME, cell-based, Hepatocyte. The conditions noted are these: 1 h.
Data set [7] is described as follows: Blood clearance in male Wistar Han rat at 1 mg/kg, iv measured up to 7 hrs by LC-MS/MS analysis. It is filed as ADME, organism-based. Particulars: whole blood.
The nature of data set [8]: Intrinsic clearance in human hepatocytes at 0.5 uM incubated for 120 mins by LC-MS/MS analysis. Type of data set: ADME, cell-based, Hepatocyte. Particulars: 2 h.
The nature of data set [9]: Oral bioavailability in male Wistar Han rat at 3 mg/kg measured up to 7 hrs by LC-MS/MS analysis. It is filed as ADME, organism-based. Particulars: in vivo.
The nature of data set [10]: Half life in male Wistar Han rat at 1 mg/kg, iv measured up to 7 hrs by LC-MS/MS analysis. It is filed as ADME, organism-based. Particulars: in vivo.
Data set [11] in a line: Half life in beagle dog at 10.5 mg/kg, iv measured up to 7 hrs by LC-MS/MS analysis. The conditions noted are these: in vivo. Type of data set: ADME, organism-based, Canis lupus familiaris.
Data set [12] in a line: Oral bioavailability in beagle dog at 10.5 mg/kg, iv measured up to 7 hrs by LC-MS/MS analysis. Type of data set: ADME, organism-based, Canis lupus familiaris. Particulars: in vivo.
Data set [13] in a line: Intrinsic clearance in Wistar Han rat liver microsomes at 0.5 uM pre-incubated up to 45 mins before NADPH addition by LC-MS/MS analysis. It is filed as ADME, Microsome.
Data set [14] is described as follows: Intrinsic clearance in human liver microsomes at 0.5 uM pre-incubated up to 45 mins before NADPH addition by LC-MS/MS analysis. Type of data set: ADME, Microsome. For orientation: Microsomes from liver hold many membrane-bound enzymes, among them those of drug oxidation.
Data set [15] in a line: Dose normalized AUC in male Wistar Han rat at 3 mg/kg, po measured up to 7 hrs by LC-MS/MS analysis. Type of data set: ADME, organism-based. The conditions noted are these: in vivo.
The nature of data set [16]: Half life in male Wistar Han rat at […], iv measured up to 7 hrs by LC-MS/MS analysis. Particulars: in vivo.
The nature of data set [17]: Volume of distribution at steady state in male Wistar Han rat at […], iv measured up to 7 hrs by LC-MS/MS analysis. Particulars: in vivo, read-out: Vdss.
Data set [18] is described as follows: Blood clearance in male Wistar Han rat at […], iv measured up to 7 hrs by LC-MS/MS analysis. Particulars: whole blood.

Usually chromatographic logD stands for a lipophilicity value derived from retention on a column. Low readings indicate lower lipophilicity, high ones higher lipophilicity. For orientation: clearance means the rate of elimination divided by the concentration. Low readings indicate a low capacity for elimination, high ones a high capacity for elimination. For orientation: half-life means how long it takes for the measured level to halve. Higher therefore signals slow loss.

`CNC(=O)c1cccn(Cc2ccccc2)c1=O`: in [1], the chromatographic logD stood at 3.

As to `CNC(=O)c1cc(C(=O)NCC(C)C)cn(Cc2ccccc2)c1=O`, the chromatographic logD in [1] was found to be 4.3.

`CNC(=O)c1cc(C(=O)NC2CC2)cn(Cc2cccc3cn[nH]c23)c1=O` came in with a chromatographic logD in data set [1] of 2.2.

`CNC(=O)c1cc(C(=O)NC2CC2)cn(Cc2cccc(C)c2)c1=O` came in with a chromatographic logD in data set [1] of 3.6.

For the molecule `CNC(=O)c1cc(C(=O)NC2CCOCC2)cn(Cc2ccccc2)c1=O`, in data set [1], the chromatographic logD was found to be 2.8.

Take `CNC(=O)c1cc(C(=O)NC2CCC2)cn(Cc2ccccc2)c1=O`: the chromatographic logD in data set [1] stood at 3.8.

In turn, `CNC(=O)c1ccc(=O)n(Cc2ccccc2)c1` registered a chromatographic logD in data set [1] of 1.6.

Molecule `CNC(=O)c1cc(C(=O)NC2CC2)cn(Cc2cccc(F)c2)c1=O` yielded a chromatographic logD in [1] of 3.2.

In [1], `CNC(=O)c1cc(C(=O)NC2CC2)cn(Cc2nccc3[nH]ccc23)c1=O` came in with a chromatographic logD of 1.7.

For `CNC(=O)c1cc(C(=O)NC2CC2)cn(Cc2ccccc2)c1=O` [GSK620], the figures for the Vd in [2] and in data set [5] were 1 L/kg and 0.8 L/kg, respectively. Further, the chromatographic logD in data set [1] is 3.1. For the same molecule, the CLH in data set [3] is < 1.26 mL/min/g; in [6], 0.95 mL/min/g; in data set [8] it was < 0.45 mL/min/g. The clearance in data set [4] was determined as 2 mL/min/kg; in [7] it was 12 mL/min/kg. In addition, the values for the bioavailability in data set [9] and in data set [12] were 67% and 57%, respectively. Moreover, the values for the half-life in data set [10] and in data set [11] were 66 min and 342 min, respectively.

In data set [1], `CNC(=O)c1cc(C(=O)NC2CC2)cn(Cc2cccc3c2CCN3)c1=O` had a chromatographic logD of 2.1. In addition, the CLH is < 1.26 mL/min/g in data set [3], < 0.8 mL/min/g in [6] and < 0.45 mL/min/g in data set [8]. Further, the Vd in data set [5] amounted to 0.9 L/kg. For the same molecule, in data set [7], the clearance is 16 mL/min/kg. The bioavailability in data set [9] came out at 53%. In data set [10], this molecule gave a half-life of 36 min.

In [1], `CNC(=O)c1cc(C(=O)NC2CC2)cn(Cc2ccccc2F)c1=O` returned a chromatographic logD of 3.

On to `CNC(=O)c1cc(C(N)=O)cn(Cc2ccccc2)c1=O`, for which the chromatographic logD in [1] is 2.

Consider `CNC(=O)c1ccc(=O)n(Cc2cc(Br)ccc2F)c1`, for which the CLH came out at 0.76 mL/min/g in data set [13] and 0.53 mL/min/g in data set [14]. Besides, the chromatographic logD in data set [1] turned out to be 2.6.

Consider `CNC(=O)c1cc(C(=O)NC2CC2)cn(Cc2cccc3occc23)c1=O`, for which the chromatographic logD in data set [1] was 3.4.

On to `CNC(=O)c1cc(C(=O)NC2CC2)c(C)n(Cc2ccccc2)c1=O`, for which the chromatographic logD in data set [1] turned out to be 2.9.

Regarding `CNC(=O)c1cc(C(=O)NC2CC2)cn(Cc2ccc(F)cc2)c1=O`, in data set [1], the chromatographic logD worked out at 3.2.

Regarding `CNC(=O)c1cc(C(=O)NC2CC2)cn(Cc2cccc(C#N)c2)c1=O`, the chromatographic logD in data set [1] is 2.6.

With `CCNC(=O)c1cc(C(=O)NC)c(=O)n(Cc2ccccc2)c1`, the chromatographic logD in data set [1] was 3. Moreover, the CLH in data set [3] was < 1.26 mL/min/g; in data set [6] it was < 0.8 mL/min/g; in data set [8] it was < 0.87 mL/min/g. In data set [5], the Vd is 0.8 L/kg. The molecule also registered a clearance in [7] of 12 mL/min/kg. For the same molecule, in data set [9], the bioavailability amounted to 104%. In data set [10], this molecule gave a half-life of 36 min.

As for `CNC(=O)c1cc(C(=O)NC2CC2)cn(Cc2cccc3cc[nH]c23)c1=O`, the chromatographic logD in data set [1] was determined as 3.7.

Consider `CNC(=O)c1cc(C(=O)NCCOC)cn(Cc2ccccc2)c1=O`, for which the chromatographic logD in [1] was 2.7.

Turning to `CNC(=O)c1cc(C(=O)NC2CC2)cn(CC2CCCCC2)c1=O`, the chromatographic logD in data set [1] came to 4.

`CNC(=O)c1cc(C(=O)NC2CC2)cn(Cc2ccc(C)cc2)c1=O` yielded a chromatographic logD in [1] of 3.5.

For the molecule `CNC(=O)c1cc(C(=O)NCCC2CCCNC2)cn(Cc2ccccc2)c1=O` (stereo not drawn), in data set [1], the chromatographic logD came to 1.6.

`CNC(=O)c1cc(C(=O)NC2CC2)cn(Cc2cccc3[nH]ccc23)c1=O` returned a chromatographic logD in [1] of 2.9. In addition, the values for the CLH in data set [3], in data set [6] and in [8] were < 1.26 mL/min/g, 1.66 to 1.7 mL/min/g and < 0.45 mL/min/g, respectively. For the same molecule, in data set [5], the Vd turned out to be 1.3 L/kg. The same molecule gave a clearance in [7] of 23 mL/min/kg. In [15], the AUC/dose amounted to 23.6 kg·min/L. Also, in data set [10], the half-life is 48 min.

With `CNC(=O)c1cc(C(=O)NC2CCC2)cn(Cc2cccc(NC)c2)c1=O`, in data set [1], the chromatographic logD was 3.6.

Molecule `CNC(=O)c1cc(C(=O)NC2CC2)cn(Cc2cccc(OC)c2)c1=O` returned a chromatographic logD in data set [1] of 3.

Molecule `CNC(=O)c1cc(C(=O)NC2CCC2)cn(Cc2ccncc2)c1=O` gave a chromatographic logD in data set [1] of 1.7.

`CNC(=O)c1cc(C(=O)NC2CC2)cn(Cc2cccc([C@@H](C)O)c2)c1=O` registered a chromatographic logD in data set [1] of 2.2. The CLH in data set [3] is < 1.26 mL/min/g; in data set [6] it was 3 mL/min/g; in data set [8] it was < 0.45 mL/min/g. Also, the Vd in [5] came out at 1.7 L/kg. In addition, in data set [7], the clearance was 74 mL/min/kg. This molecule also had a half-life in data set [10] of 24 min.

In turn, `CNC(=O)c1cc(C(=O)NC2CC2)cn(CC2CCCOC2)c1=O` (racemic) registered a chromatographic logD in data set [1] of 2.

In data set [16], `CNC(=O)c1cc(C(=O)NC2CC2)cn([C@H](C)c2ccccc2)c1=O` gave a half-life at 7 h of 24 min. Moreover, in [17], the Vd at 7 h turned out to be 1.6 L/kg. The molecule further had a chromatographic logD in data set [1] of 3.5. Further, the CLH was 1.5 mL/min/g in [6] and < 0.87 mL/min/g in data set [8]. The molecule further had a clearance at 7 h in data set [18] of 72 mL/min/kg.

The molecule `CNC(=O)c1cc(C(=O)NC(C)C)cn(Cc2ccccc2)c1=O` came in with a chromatographic logD in data set [1] of 3.6.

`CNC(=O)c1cc(C(=O)NCCO)cn(Cc2ccccc2)c1=O` registered a chromatographic logD in [1] of 1.9.

With `CNC(=O)c1cc(C(=O)NC2CC2)cn(Cc2cccc3[nH]c(C)nc23)c1=O`, in data set [1], the chromatographic logD was 1.5.

Turning to `CNC(=O)c1cc(C(=O)NCCCC2CNCCO2)cn(Cc2ccccc2)c1=O` (racemic), in [1], the chromatographic logD is 1.4.

As to `CNC(=O)c1cc(C(=O)NC2CCC2)cn(Cc2ccccn2)c1=O`, in data set [1], the chromatographic logD was found to be 2.2.

`CNC(=O)c1cc(C(=O)NCCC2CCOCC2)cn(Cc2ccccc2)c1=O`: the chromatographic logD in data set [1] came out at 3.6.

With `CNC(=O)c1cc(C(=O)NCCC(C)C)cn(Cc2ccccc2)c1=O`, in data set [1], the chromatographic logD was determined as 4.8.

`CNC(=O)c1cc(C(=O)NC2CC2)cn(Cc2ccc(OC)cc2)c1=O` yielded a chromatographic logD in data set [1] of 3.

Regarding `CNC(=O)c1cc(C(=O)NC2CC2)cn(CC2CCCCO2)c1=O` (racemic), in data set [1], the chromatographic logD amounted to 2.6.

With `CNC(=O)c1cc(C(=O)NC2CC2)cn(CC2CCOCC2)c1=O`, the chromatographic logD in data set [1] came to 1.5.

Regarding `CNC(=O)c1cc(C(=O)NC2CC2)cn(Cc2ccc3nc[nH]c3c2)c1=O`, in data set [1], the chromatographic logD came out at 1.2.

In turn, `CNC(=O)c1cc(C(=O)NC2CCC2)cn(Cc2cccnc2)c1=O` yielded a chromatographic logD in [1] of 1.8.

In [1], `CNC(=O)c1cc(C(=O)NC)c(=O)n(Cc2ccccc2)c1` gave a chromatographic logD of 2.4.

In turn, `CNC(=O)c1cc(C(=O)NC2CC2)cn(Cc2cccc3[nH]ncc23)c1=O` yielded a chromatographic logD in data set [1] of 1.5. Besides, the Vd in data set [5] was found to be 1.2 L/kg. The CLH in data set [6] is < 0.8 mL/min/g; in data set [8], < 0.45 mL/min/g. Besides, the clearance in data set [7] turned out to be 42 mL/min/kg. The bioavailability in [9] was 14%. The molecule also had a half-life in data set [10] of 24 min.

In data set [1], `CNC(=O)c1cc(C(=O)NC2CC2)cn(Cc2cccc(CCN3CCOCC3)c2)c1=O` returned a chromatographic logD of 2.3.

The molecule `CCNC(=O)c1cccn(Cc2ccccc2)c1=O` gave a chromatographic logD in [1] of 3.7.

The record behind these values is ChEMBL document CHEMBL4622971, “The Optimization of a Novel, Weak Bromo and Extra Terminal Domain (BET) Bromodomain Fragment Ligand to a Potent and Selective Second Bromodomain (BD2) Inhibitor” (J Med Chem, 2020).
